What was measured:
P. aurifer [1] = experiment: Field trapping Experiment 3, different doses of DMNT alone; format: in vivo, Polistes aurifer
Procedure: (§1) Three field trapping experiments were carried out during late July to early August 2009, in residential and woody areas around Spokane, Wash., USA, using the newly marketed Rescue® W•H•Y traps (www.rescue.com). As used herein, the W•H•Y trap is a trap in accordance with the description of United States Patent Application Publication No. 2009/0151228. The W•H•Y trap has a top chamber and a bottom chamber. The top chamber is baited with two attractants—one of which is a solid contained in a vial (2-methyl-1-butanol) and the other a liquid mixed with water (acetic acid), herein referred to as the W•H•Y top attractant. The bottom chamber is baited with a liquid attractant (heptyl butyrate) poured onto a cotton pad, herein referred to as the W•H•Y bottom attractant. Separation of the top and bottom attractants (otherwise antagonistic to each other when released from the same chamber) in two chambers was a design feature of this trap and creates two focal attraction sources from one trap for different species of wasps, hornets, and yellowjackets. Traps were hung 1.5-2.0 m above the ground on either the fence or tree branches ca. 5 m apart within each trap line. For each trapping experiment, six sets of traps were deployed with their initial trap positions within each set being randomized. To minimize positional effects and obtain more replications, wasp collections and trap re-randomization were carried out when ≧10-20 wasps were caught in the best trap. Each replicate lasted several days depending on wasp flight activity. Captured wasps were removed from the traps and kept in the zip-bags before taking back to the laboratory for recording of the species, gender status, and catch.
(§2) Experiment 3 (Aug. 5-13, 2009) was conducted to determine the potential behavioral activity of different doses of (E)-4,8-dimethyl-1,3,7-nonatriene alone. The individual (or different doses) HIPVs were loaded into either polyethylene bags or centrifuge tube type of dispensers, and released from the top of the W•H•Y trap chamber. W•H•Y trap attractants (both top and bottom or top only) alone and water (top chamber only) were included in the test as positive and blank controls, respectively. The dispenser types, loading and release rates of the tested semiochemicals are described in Tables 1, 2 and 3.
(§3) Trap catch data were converted to proportion (P) of total captured wasps within each replicate. Data were then transformed by arcsin√P to meet the assumptions of normality and homogeneity of variances for ANOVA. Means were compared by ANOVA followed by the Ryan-Einot-Gabriel-Welsh (REGW) multiple Q test (SPSS 16.0 for Windows) at α=0.05.

[2] = system: paper wasps and yellowjackets; experiment: Field trapping Experiment 2; format: in vivo, V. pensylvanica, V. vulgaris and P. dominulus; details: Exp 2
Procedure: as §1, with “To minimize positional effects and obtain more replications, wasp collections and trap re-randomization were carried out when ≧10-20 wasps were caught in the best trap. Each replicate lasted several days depending on wasp flight activity. Captured wasps were removed from the traps and kept in the zip-bags before taking back to the laboratory for recording of the species, gender status, and catch.” left out

V. atropilosa = experiment: Field trapping Experiment 2, DMNT dose-response with W•H•Y top attractants; format: in vivo, Vespula atropilosa; details: Exp 2, DMNT added to WHY top attractant
Procedure: as §1, §2, §3

paper wasps = experiment: Field trapping Experiment 1, top chamber catches; format: in vivo, P. dominulus and P. aurifer; details: Exp 1; HIPV combined with W•H•Y attractant (acetic acid and 2-methyl-1-butanol) in the top chamber
Procedure: as §1, with “To minimize positional effects and obtain more replications, wasp collections and trap re-randomization were carried out when ≧10-20 wasps were caught in the best trap. Each replicate lasted several days depending on wasp flight activity. Captured wasps were removed from the traps and kept in the zip-bags before taking back to the laboratory for recording of the species, gender status, and catch.” left out

P. aurifer [3] = experiment: Field trapping Experiment 2, DMNT dose-response with W•H•Y top attractants; format: in vivo, Polistes aurifer; details: Exp 2, DMNT added to WHY top attractant
Procedure: as §1, §2, §3

V. pensylvanica [4] = experiment: Field trapping Experiment 3, different doses of DMNT alone; format: in vivo, Vespula pensylvanica
Procedure: as §1, §2, §3

V. pensylvanica [5] = experiment: Field trapping Experiment 2, DMNT dose-response with W•H•Y top attractants; format: in vivo, Vespula pensylvanica; details: Exp 2, DMNT added to WHY top attractant
Procedure: as §1, §2, §3

[6] = Exp 3, release rate 0.25, hole 0.5 mm, loading 15 μL
[7] = Exp 3, release rate 0.5, hole 1 mm, loading 30 μL
[8] = Exp 3, release rate 1, hole 2 mm, loading 75 μL
[9] = Exp 3, release rate 1.5, hole 3 mm, loading 175 μL
[10] = Exp 3, release rate 2, hole 5.5 mm, loading 325 μL
[11] = release rate 0.25, hole 0.5 mm, loading 15 μL
[12] = release rate 0.5, hole 1 mm, loading 30 μL
[13] = release rate 1, hole 2 mm, loading 75 μL
[14] = release rate 1.5, hole 3 mm, loading 175 μL
[15] = release rate 2, hole 5.5 mm, loading 325 μL

C=C/C=C(\C)CCC=C(C)C [(E)-4,8-dimethyl-1,3,7-nonatriene]
Total Paper Wasps Caught P. aurifer (P. aurifer [1]; [6]): 3
Total Paper Wasps Caught P. aurifer (P. aurifer [1]; [7]): 1
Total Paper Wasps Caught P. aurifer (P. aurifer [1]; [8]): 0
Total Paper Wasps Caught P. aurifer (P. aurifer [1]; [9]): 5
Total Paper Wasps Caught P. aurifer (P. aurifer [1]; [10]): 0
effect on trap catches of the vespid workers ([2]; 0.5 or 1-1.5 mg/day added to the top attractants, especially V. pensylvanica, V. vulgaris and P. dominulus): significantly increased
effect on the trap catches ([2]; other release rates (doses) added to the top attractants): no effect
Total Yellowjackets Caught V. atropilosa (V. atropilosa; [11]): 0
Total Yellowjackets Caught V. atropilosa (V. atropilosa; [12]): 0
Total Yellowjackets Caught V. atropilosa (V. atropilosa; [13]): 0
Total Yellowjackets Caught V. atropilosa (V. atropilosa; [14]): 0
Total Yellowjackets Caught V. atropilosa (V. atropilosa; [15]): 1
effect on trap catches of paper wasps in the top chambers (paper wasps): significantly increased
Total Paper Wasps Caught P. aurifer (P. aurifer [3]; [11]): 0
Total Paper Wasps Caught P. aurifer (P. aurifer [3]; [12]): 0
Total Paper Wasps Caught P. aurifer (P. aurifer [3]; [13]): 0
Total Paper Wasps Caught P. aurifer (P. aurifer [3]; [14]): 0
Total Paper Wasps Caught P. aurifer (P. aurifer [3]; [15]): 0
Total Yellowjackets Caught V. pensylvanica (V. pensylvanica [4]; [6]): 43
Total Yellowjackets Caught V. pensylvanica (V. pensylvanica [4]; [7]): 12
Total Yellowjackets Caught V. pensylvanica (V. pensylvanica [4]; [8]): 34
Total Yellowjackets Caught V. pensylvanica (V. pensylvanica [4]; [9]): 24
Total Yellowjackets Caught V. pensylvanica (V. pensylvanica [4]; [10]): 24
Total Yellowjackets Caught V. pensylvanica (V. pensylvanica [5]; [11]): 68
Total Yellowjackets Caught V. pensylvanica (V. pensylvanica [5]; [12]): 90
Total Yellowjackets Caught V. pensylvanica (V. pensylvanica [5]; [13]): 47
Total Yellowjackets Caught V. pensylvanica (V. pensylvanica [5]; [14]): 77
Total Yellowjackets Caught V. pensylvanica (V. pensylvanica [5]; [15]): 46

From patent US20110165115A1, “SYNERGISTIC ATTRACTANTS FOR PESTIFEROUS SOCIAL INSECTS” (STERLING INTERNATIONAL INC., priority 2010, published 2011)
